# Where a name gives a salt, the structure may show the parent alone.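 1) Cells in 96-well plates. 2) Compound, 48 h, 5 concentrations. 3) Linear interpolation between surrounding doses. 4) Unreached endpoint = highest concentration. At the GI50, growth is halved.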 Calls of active or inactive are those of the source. Cut-off read from the data, not from the text of the source: active = GI50 up to about 1.1 µM and inactive = higher.
# Legend:
# Experiment in all cases: inhibition of tumour cell growth, NCI panel, 48 h
# [1] = test system: DU-145
# [2] = test system: SF-295
# [3] = test system: TK-10
# [4] = test system: CAKI-1
# [5] = test system: M14
# [6] = test system: KM12
# [7] = test system: EKVX
# [8] = test system: 786-0
# [9] = test system: SNB-19
# [10] = test system: MCF7
# [11] = test system: SR
# [12] = test system: HL-60
# [13] = test system: SF-268
# [14] = test system: NCI-H23
# [15] = test system: UO-31
# [16] = test system: UACC-257
# [17] = test system: SK-MEL-5
# [18] = test system: MDA-MB-435
# [19] = test system: SNB-75
# [20] = test system: HOP-92
Compound,GI50 [1],GI50 [2],GI50 [3],GI50 [4],GI50 [5],GI50 [6],GI50 [7],GI50 [8],GI50 [9],GI50 [10],GI50 [11],GI50 [12],GI50 [13],GI50 [14],GI50 [15],GI50 [16],GI50 [17],GI50 [18],GI50 [19],GI50 [20]
C1COCCOP2(N3CC3)=NP(N3CC3)(=NP(N3CC3)(N3CC3)=N2)OCCOCCO1 (configuration not stated),37.4 µM (inactive),> 100 µM (inactive),> 100 µM (inactive),> 100 µM (inactive),> 100 µM (inactive),> 100 µM (inactive),> 100 µM (inactive),> 100 µM (inactive),> 100 µM (inactive),> 100 µM (inactive),50.4 µM (inactive),> 100 µM (inactive),> 100 µM (inactive),> 100 µM (inactive),> 100 µM (inactive),> 100 µM (inactive),> 100 µM (inactive),> 100 µM (inactive),> 100 µM (inactive),–
CC1=NC(=Cc2ccc(O)cc2)C(=O)N1n1c(-c2ccccc2)nc2ccccc2c1=O,> 100 µM (inactive),> 100 µM (inactive),> 100 µM (inactive),> 100 µM (inactive),> 100 µM (inactive),> 100 µM (inactive),> 100 µM (inactive),> 100 µM (inactive),> 100 µM (inactive),> 100 µM (inactive),> 100 µM (inactive),> 100 µM (inactive),> 100 µM (inactive),> 100 µM (inactive),> 100 µM (inactive),> 100 µM (inactive),> 100 µM (inactive),> 100 µM (inactive),> 100 µM (inactive),–
COc1ccc(C(OCC2OC(n3cnc4c(=O)n(Cc5ccccc5[N+](=O)[O-])nnc43)C(O)C2O)(c2ccccc2)c2ccc(OC)cc2)cc1 (configuration not stated),19.6 µM (inactive),5.97 µM (inactive),9.53 µM (inactive),10.7 µM (inactive),8.51 µM (inactive),13.1 µM (inactive),29.3 µM (inactive),10.8 µM (inactive),44.9 µM (inactive),4.28 µM (inactive),–,2.18 µM (inactive),16 µM (inactive),13.4 µM (inactive),11.4 µM (inactive),22.2 µM (inactive),9.31 µM (inactive),10.4 µM (inactive),45.7 µM (inactive),2.38 µM (inactive)
CCN(CC)CC(O)C1CCC(c2ccccc2)CC1 (configuration not stated),61 µM (inactive),17.1 µM (inactive),15.3 µM (inactive),19 µM (inactive),25.1 µM (inactive),24 µM (inactive),0.437 µM (active),15.6 µM (inactive),25.8 µM (inactive),22.5 µM (inactive),–,28.9 µM (inactive),31.6 µM (inactive),30.4 µM (inactive),14.8 µM (inactive),21 µM (inactive),13.7 µM (inactive),17.1 µM (inactive),23.7 µM (inactive),18.6 µM (inactive)
CCCNC(=O)CCC(C)[C@H]1CCC2C3C(C[C@H](OC(C)=O)[C@@]21C)[C@@]1(C)CCC2(C[C@H]1C[C@H]3OC(C)=O)OOC1(CCCCC1)OO2 (some centres not stated),1.85 µM (inactive),3.79 µM (inactive),1.95 µM (inactive),0.367 µM (active),5.02 µM (inactive),1.44 µM (inactive),1.58 µM (inactive),2.31 µM (inactive),7.18 µM (inactive),3.04 µM (inactive),1.32 µM (inactive),1.51 µM (inactive),2.02 µM (inactive),1.12 µM (inactive),0.0893 µM (active),5.3 µM (inactive),2.46 µM (inactive),2.23 µM (inactive),1.9 µM (inactive),–
CCNCC(O)COc1ccc2c(c1)[n+]([O-])nc(N)[n+]2[O-] (configuration not stated),71.3 µM (inactive),34.4 µM (inactive),> 100 µM (inactive),26.9 µM (inactive),40.7 µM (inactive),59.3 µM (inactive),> 100 µM (inactive),51.6 µM (inactive),61.2 µM (inactive),74 µM (inactive),45.5 µM (inactive),43.1 µM (inactive),31.3 µM (inactive),47.4 µM (inactive),> 100 µM (inactive),> 100 µM (inactive),24.8 µM (inactive),> 100 µM (inactive),29.4 µM (inactive),–
O=C(/C=C/c1ccsc1)c1ccc(Cl)cc1,> 100 µM (inactive),> 100 µM (inactive),> 100 µM (inactive),> 100 µM (inactive),80.7 µM (inactive),35.3 µM (inactive),97.7 µM (inactive),89.5 µM (inactive),53.8 µM (inactive),34.8 µM (inactive),18.7 µM (inactive),19.1 µM (inactive),79.4 µM (inactive),35.3 µM (inactive),31.1 µM (inactive),> 100 µM (inactive),> 100 µM (inactive),41.8 µM (inactive),> 100 µM (inactive),–
CCOC(=O)C1CCCCN1C(=O)Cc1c[nH]c2ccccc12 (configuration not stated),84.1 µM (inactive),66.2 µM (inactive),> 100 µM (inactive),69.7 µM (inactive),63.4 µM (inactive),41.3 µM (inactive),59.2 µM (inactive),> 100 µM (inactive),> 100 µM (inactive),37.5 µM (inactive),–,31.3 µM (inactive),45.2 µM (inactive),80.2 µM (inactive),–,79.3 µM (inactive),–,34.4 µM (inactive),40 µM (inactive),16 µM (inactive)
N#Cc1c(N2CCC(O)C2)c2ccccc2n2c1nc1ccccc12 (configuration not stated),> 100 µM (inactive),31 µM (inactive),51.1 µM (inactive),37.9 µM (inactive),> 100 µM (inactive),> 100 µM (inactive),> 100 µM (inactive),17.1 µM (inactive),32.1 µM (inactive),> 100 µM (inactive),–,> 100 µM (inactive),43.7 µM (inactive),67.6 µM (inactive),> 100 µM (inactive),> 100 µM (inactive),> 100 µM (inactive),> 100 µM (inactive),25.1 µM (inactive),41.1 µM (inactive)
CC1(C)CC2=C(SC3C=CC=CC3N2)C(=O)C1C(=O)C(N)=O (configuration not stated),> 100 µM (inactive),> 100 µM (inactive),> 100 µM (inactive),> 100 µM (inactive),> 100 µM (inactive),> 100 µM (inactive),> 100 µM (inactive),> 100 µM (inactive),> 100 µM (inactive),> 100 µM (inactive),–,44.1 µM (inactive),> 100 µM (inactive),> 100 µM (inactive),54.5 µM (inactive),> 100 µM (inactive),> 100 µM (inactive),> 100 µM (inactive),> 100 µM (inactive),> 100 µM (inactive)
N#CC(C#N)/N=C/c1ccncc1,> 100 µM (inactive),> 100 µM (inactive),> 100 µM (inactive),> 100 µM (inactive),> 100 µM (inactive),> 100 µM (inactive),> 100 µM (inactive),> 100 µM (inactive),–,> 100 µM (inactive),–,39 µM (inactive),> 100 µM (inactive),> 100 µM (inactive),–,> 100 µM (inactive),> 100 µM (inactive),> 100 µM (inactive),> 100 µM (inactive),> 100 µM (inactive)
CC(C)CCC[C@@H](C)C1CCC2[C@@H]3CCC4C[C@@H](NS(C)(=O)=O)CC[C@]4(C)C3CC[C@@]21C (some centres not stated),> 100 µM (inactive),> 100 µM (inactive),> 100 µM (inactive),> 100 µM (inactive),> 100 µM (inactive),> 100 µM (inactive),> 100 µM (inactive),> 100 µM (inactive),> 100 µM (inactive),> 100 µM (inactive),> 100 µM (inactive),> 100 µM (inactive),> 100 µM (inactive),> 100 µM (inactive),> 100 µM (inactive),> 100 µM (inactive),> 100 µM (inactive),> 100 µM (inactive),> 100 µM (inactive),–
NCCS [CYSTEAMINE HYDROCHLORIDE],> 100 µM (inactive),> 100 µM (inactive),> 100 µM (inactive),> 100 µM (inactive),> 100 µM (inactive),> 100 µM (inactive),> 100 µM (inactive),> 100 µM (inactive),> 100 µM (inactive),> 100 µM (inactive),> 100 µM (inactive),> 100 µM (inactive),> 100 µM (inactive),> 100 µM (inactive),> 100 µM (inactive),> 100 µM (inactive),> 100 µM (inactive),> 100 µM (inactive),> 100 µM (inactive),–
CC(=O)OC[C@@]1(C)[C@@H]2[C@@H]3[C@@]4(CO[C@]3(C)C(=O)[C@@]3(OC(C)=O)C[C@H](C)[C@H](OC(C)=O)[C@@H]3[C@H]4OC(C)=O)[C@H](OC(=O)c3ccccc3)C[C@@H]21,> 100 µM (inactive),93.3 µM (inactive),> 100 µM (inactive),> 100 µM (inactive),91.4 µM (inactive),> 100 µM (inactive),63.2 µM (inactive),> 100 µM (inactive),> 100 µM (inactive),81.8 µM (inactive),–,63.8 µM (inactive),> 100 µM (inactive),> 100 µM (inactive),99.8 µM (inactive),> 100 µM (inactive),> 100 µM (inactive),> 100 µM (inactive),> 100 µM (inactive),> 100 µM (inactive)

# — ChEMBL document CHEMBL1201862, “PubChem BioAssay data set” (2004)
